Laboratory results: patent US6413969B1, “Gatifloxacin pentahydrate” (Bristol-Myers Squibb Company, priority 2000, dated 2002)

Legend:
[1] = physical stability / interconversion of crystalline forms in water; assay type: physicochemical
Excerpt: (§1) The crystal structures and ideal water content of seven of these forms were established through single crystal x-ray analyses. Each form gives rise to unique and characteristic single crystal and powder x-ray diffraction. The kinetic and thermodynamic relationships among the three major hydrates were investigated leading to the understanding of their stability order in water as a function of temperature and their interconversion relationship. […] The implications of these findings were very significant in the discovery and development of highly homogeneous gatifloxacin pentahydrate in accordance with the present invention. Further, these findings made it evident that very strict process controls were necessary in the production of crystalline gatifloxacin and dosage forms containing it and that it was necessary to obtain crystalline gatifloxacin pentahydrate in high homogeneity vs. the other crystalline forms in order to realize the advantageous properties thereof. By high homogeneity is meant that crystalline gatifloxacin pentahydrate must contain no detectable levels of the other crystalline forms thereof as determined by powder x-ray diffraction technique.

[2] = cited from earlier work
[3] = aqueous solubility of the crystalline hydrates; assay type: physicochemical; conditions: for aqueous solubility (rank among the three major hydrates): water, 25° C., sesquihydrate, pentahydrate, hexahydrate compared
Excerpt: as §1

[4] = parenterally and via oral administration; cited from earlier work
infections = conditions: cited from earlier work
[5] = test system: broad spectrum of microorganisms including antibiotic-resistant strains of Streptococcus Pneumoniae; conditions: cited from earlier work
[6] = stability studies under stressed conditions of temperature and humidity; assay type: physicochemical
Excerpt: It has been found in accordance with the present invention that the advantageous stability and solubility properties of the pentahydrate of gatifloxacin can be applied to the formulation of pharmaceutical dosage forms. While the pentahydrate of gatifloxacin can be utilized to prepare tablets by wet granulation, it can also be formulated in accordance with the present invention into stable pharmaceutical solid dosage forms by conventional dry granulation. […] Such formulations will include conventional inert ingredients such as binders, excipients, disintegrants, and the like. Examples of such agents include various starch derivatives such as pregelatinized starch, hydroxypropyl cellulose microcrystalline cellulose, sodium starch glycolate, magnesium stearate, lactose, mannitol and the like.

COc1c(N2CCNC(C)C2)c(F)cc2c(=O)c(C(=O)O)cn(C3CC3)c12 (stereo not drawn) [hemihydrate]
tendency to form higher hydrates ([1]; in the presence of water): definite tendency to form higher hydrates

COc1c(N2CCNC(C)C2)c(F)cc2c(=O)c(C(=O)O)cn(C3CC3)c12 (stereo not drawn) [sesquihydrate]
disintegration and dissolution rates of tablets in comparison to the hemihydrate ([2]; tablets made from the crystalline form): superior disintegration and dissolution rates | stability in comparison to the hemihydrate ([2]; varying conditions of humidity): enhanced stability | aqueous solubility (rank among the three major hydrates) [3]: highest

COc1c(N2CCNC(C)C2)c(F)cc2c(=O)c(C(=O)O)cn(C3CC3)c12 (stereo not drawn) [Gatifloxacin, 1-cyclopropyl-6-fluoro-1,4-dihydro-8-methoxy-7-(3-methyl-1piperizinyl)-4-oxo-3-quinolinecarboxylic acid]
efficacy [4]: excellent efficacy | overall tolerability (infections; in vivo): excellent overall tolerability | safety and efficacy in treatment of infections (infections; individuals with impaired liver function): safe and efficacious | effectiveness against microorganisms [5]: effective

COc1c(N2CCNC(C)C2)c(F)cc2c(=O)c(C(=O)O)cn(C3CC3)c12 (stereo not drawn) [gatifloxacin pentahydrate, 1cyclopropyl-6-fluoro-1,4-dihydro-8-methoxy-7-(3-methyl-1-piperazinyl)-4-oxo-3-quinolinecarboxylic acid]
form change or other degradation [6]: no evidence of form change or other degradation | physical stability of the crystalline form ([1]; compared with the other crystalline forms, conversion over time): most physically stable form | solubility compared with the metastable sesquihydrate ([3]; aqueous dosage forms): less soluble | aqueous solubility (rank among the three major hydrates) ([3]; listed as pentahydrate): lowest
